Source: US5603943A, “Nasally administrable compositions” (Dott Research Laboratory, priority 1994, dated 1997)
Values joined by “and” are separate entries in the source; they are usually repeats but may differ in a detail not shown here. Identical values can stand only once.

Key:
[1] = Salmon calcitonin blood concentration, nasal powder with hydroxyapatite (Test Example 2); type: in vivo, healthy male adults (human); details: for Concentration of salmon calcitonin in the blood: nasal 200 MRC (IU)/25 mg, individual cases No. 1-3 in order
Experimental: (§1) A nasally administrable composition in powdery form was prepared by formulating salmon calcitonin as a physiologically active peptide at the rate of 200 MRC (IU) per 25 mg with hydroxyapatite as a carrier having a mean particle size ranging from 40 to 45 μm.
(§2) The resulting composition was nasally administered once at a dose of 25 mg to three healthy male adults and the blood (2.5 ml) was collected from each of the tested adults prior to administration and then at 5, 10, 15, 20, 30, 45, 60, 90, 120 and 180 minutes after administration. The concentration of the salmon calcitonin in each of the collected blood samples was assayed with a standard RIA assay kit.

[2] = Salmon calcitonin blood concentration, nasal powder with hydroxyapatite (Test Example 3); type: in vivo, healthy male adults (human); details: for Concentration of salmon calcitonin in the blood: nasal 200 MRC (IU)/25 mg, individual cases No. 4-7 in order
Experimental: as §1
as §2, with “four” for “three”

[3] = Salmon calcitonin blood concentration, nasal powder with magnesium stearate (Test Example 4); type: in vivo, healthy male adults (human)
Experimental: A nasally administrable composition in powdery form was prepared by formulating salmon calcitonin as a physiologically active peptide at the rate of 200 MRC (IU) per 25 mg with magnesium stearate as a carrier having a mean particle size ranging from 40 to 45 μm.
as §2, with “in each -of the collected” for “in each of the collected”

[4] = Salmon calcitonin blood concentration, nasal powder with calcium carbonate (Test Example 5); type: in vivo, healthy male adults (human)
Experimental: A nasally administrable composition in powdery form was prepared by formulating salmon calcitonin as a physiologically active peptide at the rate of 200 MRC (IU) per 25 mg with calcium carbonate as a carrier having a mean particle size ranging from 40 to 45 μm.
as §2

[5] = Salmon calcitonin blood concentration, nasal powder with aluminum hydroxide (Test Example 6); type: in vivo, healthy male adults (human); details: for Concentration of salmon calcitonin in the blood: nasal 200 MRC (IU)/25 mg, individual cases No. 14-16 in order
Experimental: A nasally administrable composition in powdery form was prepared by formulating salmon calcitonin as a physiologically active peptide at the rate of 200 MRC (IU) per 25 mg with aluminum hydroxide as a carrier having a mean particle size ranging from 40 to 45 μm.
as §2

[6] = Nasal absorption, clinical effect and irritation (general statement); type: in vivo
[7] = relative, among calcitonins; cited from earlier work
[8] = powder in specific carrier, nasal route

Substance: salmon calcitonin
- Concentration of salmon calcitonin in the blood ([1]; 0 min (predose)): ~ 7 pg/ml
- Concentration of salmon calcitonin in the blood ([1]; 5 min): 55.50 pg/mL and 14.05 pg/mL and 76.25 pg/mL
- Concentration of salmon calcitonin in the blood ([1]; 10 min): 93.05 pg/mL and 44.12 pg/mL and 107.67 pg/mL
- Concentration of salmon calcitonin in the blood ([1]; 15 min): 49.84 pg/mL and 77.03 pg/mL and 118.26 pg/mL
- Concentration of salmon calcitonin in the blood ([1]; 20 min): 65.95 pg/mL and 59.36 pg/mL and 95.07 pg/mL
- Concentration of salmon calcitonin in the blood ([1]; 30 min): 21.08 pg/mL and 47.69 pg/mL and 102.78 pg/mL
- Concentration of salmon calcitonin in the blood ([1]; 45 min): 12.54 pg/mL and 24.68 pg/mL and 60.68 pg/mL
- Concentration of salmon calcitonin in the blood ([1]; 60 min): 13.50 pg/mL and 19.43 pg/mL and 42.97 pg/mL
- Concentration of salmon calcitonin in the blood ([1]; 90 min): 7.92 pg/ml and ~ 7 pg/ml and 21.78 pg/ml
- Concentration of salmon calcitonin in the blood ([1]; 120 min): ~ 7 pg/ml and 12.75 pg/ml
- Concentration of salmon calcitonin in the blood ([1]; 180 min): ~ 7 pg/ml
- absorption into the blood ([1]; nasal): high degree of absorption
- absorption through the nasal cavity [2]: high extent of absorption
- Concentration of salmon calcitonin in the blood ([2]; 0 min (predose)): ~ 7 pg/ml
- Concentration of salmon calcitonin in the blood ([2]; 5 min): 65.30 pg/mL and 66.02 pg/mL and 57.83 pg/mL and 72.72 pg/mL
- Concentration of salmon calcitonin in the blood ([2]; 10 min): 98.88 pg/mL and 95.22 pg/mL and 83.75 pg/mL and 130.21 pg/mL
- Concentration of salmon calcitonin in the blood ([2]; 15 min): 96.96 pg/mL and 106.69 pg/mL and 91.55 pg/mL and 139.54 pg/mL
- Concentration of salmon calcitonin in the blood ([2]; 20 min): 59.91 pg/mL and 102.60 pg/mL and 63.17 pg/mL and 122.29 pg/mL
- Concentration of salmon calcitonin in the blood ([2]; 30 min): 46.96 pg/mL and 71.13 pg/mL and 48.09 pg/mL and 91.38 pg/mL
- Concentration of salmon calcitonin in the blood ([2]; 45 min): 23.89 pg/mL and 57.42 pg/mL and 30.95 pg/mL and 45.91 pg/mL
- Concentration of salmon calcitonin in the blood ([2]; 60 min): 14.31 pg/mL and 33.21 pg/mL and 19.56 pg/mL and 15.62 pg/mL
- Concentration of salmon calcitonin in the blood ([2]; 90 min): ~ 7 pg/ml (2×) and 13.06 pg/ml and 10.39 pg/ml
- Concentration of salmon calcitonin in the blood ([2]; 120 min): ~ 7 pg/ml and 8.76 pg/ml
- Concentration of salmon calcitonin in the blood ([2]; 180 min): ~ 7 pg/ml
- time of maximum concentration ([2]; nasal): reaching maximum in a short time after administration
- absorption [3]: high extent of absorption
- absorption [4]: high extent of absorption
- Concentration of salmon calcitonin in the blood ([5]; 0 min (predose)): ~ 7 pg/ml
- Concentration of salmon calcitonin in the blood ([5]; 5 min): 19.75 pg/mL and 26.41 pg/mL and 32.23 pg/mL
- Concentration of salmon calcitonin in the blood ([5]; 10 min): 19.35 pg/mL and 34.82 pg/mL and 24.85 pg/mL
- Concentration of salmon calcitonin in the blood ([5]; 15 min): 14.97 pg/mL and 31.66 pg/mL and 18.68 pg/mL
- Concentration of salmon calcitonin in the blood ([5]; 20 min): ~ 7 pg/ml and 37.63 pg/ml and 12.92 pg/ml
- Concentration of salmon calcitonin in the blood ([5]; 30 min): 9.15 pg/ml and 24.79 pg/ml and ~ 7 pg/ml
- Concentration of salmon calcitonin in the blood ([5]; 45 min): ~ 8 pg/ml and 13.70 pg/ml and ~ 7 pg/ml
- Concentration of salmon calcitonin in the blood ([5]; 60 min): ~ 7 pg/ml and 12.12 pg/ml
- absorption ([5]; nasal): high extent of absorption
- concentration in the blood versus injection ([5]; nasal): simlar to that obtainable by injection
- bioavailability and concentration in blood ([6]; homogeneously dispersed in and adsorbed onto the carrier): high both in bioavailability and concentration in blood
- absorption into the body [6, 8]: well absorbed into the body
- clinical effects [6, 8]: high clinical effects
- stability [7]: relatively low in stability
